Active and inactive are the calls of the source. The rule behind the calls is not given here.
Tests used:
Candida albicans [1] = assay: Antifungal activity against Candida albicans PC31 at 1.90 mg/ml after 48 hr; assay type: functional, organism-based
Candida albicans [2] = assay: Antifungal activity against Candida albicans PC31 at 1.25 mg/ml after 48 hr; assay type: functional, organism-based
[3] = 1-octanol-water partition coefficient, log P of the compound; assay type: physicochemical
Candida albicans [4] = assay: Antifungal activity against Candida albicans PC31 at 1.60 mg/ml after 48 hr; assay type: functional, organism-based
Candida albicans [5] = assay: Antifungal activity against Candida albicans PC31 at 2.10 mg/ml after 48 hr; assay type: functional, organism-based
Candida albicans [6] = assay: Antifungal activity against Candida albicans PC31 at 0.30 mg/ml after 48 hr; assay type: functional, organism-based
Candida albicans [7] = assay: Antifungal activity against Candida albicans PC31 at 0.40 mg/ml after 48 hr; assay type: functional, organism-based
Candida albicans [8] = assay: Antifungal activity against Candida albicans PC31 at 0.60 mg/ml after 48 hr; assay type: functional, organism-based
Candida albicans [9] = assay: Antifungal activity against Candida albicans PC31 at 0.50 mg/ml after 48 hr; assay type: functional, organism-based
Candida albicans [10] = assay: Antifungal activity against Candida albicans PC31 at 0.15 mg/ml after 48 hr; assay type: functional, organism-based
Candida albicans [11] = assay: Antifungal activity against Candida albicans PC31 at 2.50 mg/ml after 48 hr; assay type: functional, organism-based
Candida albicans [12] = assay: Antifungal activity against Candida albicans PC31 at 1.30 mg/ml after 48 hr; assay type: functional, organism-based
Candida albicans [13] = assay: Antifungal activity against Candida albicans PC31 at 0.06 mg/ml after 48 hr; assay type: functional, organism-based
Candida albicans [14] = assay: Antifungal activity against Candida albicans PC31 at 2.20 mg/ml after 48 hr; assay type: functional, organism-based

logP [3]	Compound	Activity (Candida albicans [1])	Activity (Candida albicans [2])	Activity (Candida albicans [4])	Activity (Candida albicans [5])	Activity (Candida albicans [6])	Activity (Candida albicans [7])	Activity (Candida albicans [8])	Activity (Candida albicans [9])	Activity (Candida albicans [10])	Activity (Candida albicans [11])	Activity (Candida albicans [12])	Activity (Candida albicans [13])	Activity (Candida albicans [14])
0.62	O=c1c(O)c(-c2ccc(O)c(Oc3c([N+](=O)[O-])cc(C(F)(F)F)cc3[N+](=O)[O-])c2)oc2cc(O)cc(O)c12	Active	Active	Active	Active	inactive	inactive	Active	inactive	inactive	Active	Active	inactive	Active
0.31	C[C@@H]1O[C@@H](OC[C@H]2O[C@@H](Oc3c(-c4ccc(O)c(O)c4)oc4cc(O)cc(O)c4c3=O)[C@H](O)[C@@H](O)[C@@H]2O)[C@H](O)[C@H](O)[C@H]1O [RUTIN]	inactive	inactive	inactive	inactive	inactive	inactive	inactive	inactive	inactive	Active	inactive	inactive	Active

Reference: ChEMBL document CHEMBL3046585, “Antifungal activity of a novel quercetin derivative bearing a trifluoromethyl group on Candida albicans” (Med Chem Res, 2012)
